Experimental data: patent publication US20060111289A1, “Compositions and methods of using Alpha-fetoprotein growth inhibitory peptides” (Serometrix, LLC,, priority 2004, published 2006)

System: human platelets
Assay: Platelet aggregation in human platelet-rich plasma
Assay type: cell-based
Settings: peptide inhibitors 30 & 100 μM
Description: FIG. 9 presents exemplary data showing platelet aggregation modulation using 0.5 ml of normal human platelet-rich plasma (PRP) with varying amounts of P149 or P 149b using 2.5×10^6 platelets per reaction vessel.
FIG. 10 presents exemplary data showing platelet aggregation activation by arachidonic acid (AA) and collagen using P149-treated platelet suspensions • Panel A1: AA alone; • Panel A2: AA followed by epinephine (EPI) and EPI alone using P149b; • Panel A3: CD62P flow cytometry fluorescence quenching by P149; • Panel B1: collagen alone and collagen+P149; • Panel B2: collagen alone; collagen+P149a showing aggregation diminution.
GIP-derived peptide fragments and/or subfragments have been assayed for platelet aggregation by measuring light transmissions with an aggregometer using a stirred human platelet suspension. Kinlough-Rathbone et al., In: Platelet Aggregation in Measurements of Platelet Function, Eds. Harker L A, Zimmerman T S., Churchill Livingstone, London. pp. 64-87 (1983); and Whittle et al., “Specificity between the anti-aggregatory actions of prostacyclin, prostaglandin Eland D2 on platelets” In: Mechanisms of stimulus—response coupling in platelets, Eds. V. V. K., MacIntyre D E, Scully M F., New York and London: Plenum Press. pp. 109-115 (1985).
The ability of GIP and its fragments were individually examined for aggregation inhibition using citrated human platelet-rich plasma (PRP). The peptides were freshly dissolved in 0.15 M NaCl containing 2.5×10^6 platelets/ml. […]

| Molecule | Inhibition (%) Of Platelet Aggregation, Adenosine Diphosphate (ADP) 2.5 μM | Inhibition (%) Of Platelet Aggregation, Arachidonic Acid (AA) 0.3 mM | Inhibition (%) Of Platelet Aggregation, Collagen (COLL) 2 μg/ml | Inhibition (%) Of Platelet Aggregation, Epinephrine |
| --- | --- | --- | --- | --- |
| Risotcetin [reference compound] | 100% | 100% | 100% | 100% |
| α2-antiplasma: positive control in the platelet aggregation assay (protein, UniProt P08697 40-491, looked up) Alpha-2-antiplasmin: NQEQVSPLTLLKLGNQEPGGQTALKSPPGVCSRDPTPEQTHRLARAMMAFTADLFSLVAQTSTCPNLILSPLSVALALSHLALGAQNHTLQRLQQVLHAGSGPCLPHLLSRLCQDLGPGAFRLAARMYLQKGFPIKEDFLEQSEQLFGAKPVSLTGKQEDDLANINQWVKEATEGKIQEFLSGLPEDTVLLLLNAIHFQGFWRNKFDPSLTQRDSFHLDEQFTVPVEMMQARTYPLRWFLLEQPEIQVAHFPFKNNMSFVVLVPTHFEWNVSQVLANLSWDTLHPPLVWERPTKVRLPKLYLKHQMDLVATLSQLGLQELFQAPDLRGISEQSLVVSGVQHQSTLELSEVGVEAAAATSIAMSRMSLSSFSVNRPFLFFIFEDTTGLPLFVGSVRNPNPSAPRELKEQQDSPGNKDFLQSLKGFPRGDKLFGPDLKLVPPMEEDYPQFGSPK | 85-90% | 100% | 90% | No effect |
